Columns and labels:
[1] = target: T1, NOD2 3020InsC frameshift mutant (fsNOD2) (Homo sapiens, UniProt Q9HC29, L1007P); test: NF-κB-luciferase reporter assay in HEK293T cells transfected with frameshift NOD2 (fsNOD2); format: cell-based; conditions: HEK293T co-transfected with pNF-κB-Luc and NOD2 3020InsC
T1 construct: expressed in transfected cells; host or cells: HEK293T
Procedure: (§1) Transfection was performed as described by Girardin et al., 2003a. HEK293T cells were transfected overnight using 1% FuGENE 6 transfection reagent (Roche Diagnostics, Mannheim, Germany) with 75 ng of the reporter plasmid pNF-kB-Luc (Stratagene, La Jolla, Calif. USA) and 1 ng p-UNO-hNODt (InvivoGen, San Diego, Calif. USA) or fsNOD2 expression plasmids (Begue et al. (2006); Chamaillard et al. (2003)). The plasmid pNF-κB-Luc is a 5.7 kb cis-reporting pNF-κB-Luc plasmid comprising an NF-κB enhancer region and a firefly luciferase gene controlled by a synthetic promoter that contains direct repeats of the transcription recognition sequences for the binding sites for NF-κB (Stratagene, Carlsbad, Calif., USA). The NOD2 3020InsC frameshift mutation was introduced using the QuikChange XL site-directed mutagenesis kit (Stratagene, Carlsbad, Calif., USA). The entire coding region was verified by sequencing and the size of the encoded product was verified by immunoblotting (Girardin et al., 2003b). A total plasmid concentration of 250 ng was achieved by addition of pcDNA3.1 vector.
The NOD2 3020InsC variant comprises a Leu1007-Pro substitution in the tenth leucine-rich region followed by a premature stop codon. It activates the NF-κB pathway to the same extent as wild-type NOD2 when overexpressed, but is unable to detect MDP or PGN (Girardin et al., 2003b).
The specificity of the system was checked by transfecting an expression plasmid for frameshift NOD2 (fsNOD2), a mutant unable to activate NF-κB in response to MDP (FIG. 11E).

[2] = target: T2, NOD2 (Homo sapiens, UniProt Q9HC29); test: NF-κB-luciferase reporter assay in HEK293T cells transfected with NOD2; format: cell-based; conditions: for response of NOD2-transfected cells to inflammatory cytokines: acts via endogenous receptors, compared with fsNOD2 cells
T2 construct: host or cells: HEK293T
T2 sequence (Q9HC29 whole entry): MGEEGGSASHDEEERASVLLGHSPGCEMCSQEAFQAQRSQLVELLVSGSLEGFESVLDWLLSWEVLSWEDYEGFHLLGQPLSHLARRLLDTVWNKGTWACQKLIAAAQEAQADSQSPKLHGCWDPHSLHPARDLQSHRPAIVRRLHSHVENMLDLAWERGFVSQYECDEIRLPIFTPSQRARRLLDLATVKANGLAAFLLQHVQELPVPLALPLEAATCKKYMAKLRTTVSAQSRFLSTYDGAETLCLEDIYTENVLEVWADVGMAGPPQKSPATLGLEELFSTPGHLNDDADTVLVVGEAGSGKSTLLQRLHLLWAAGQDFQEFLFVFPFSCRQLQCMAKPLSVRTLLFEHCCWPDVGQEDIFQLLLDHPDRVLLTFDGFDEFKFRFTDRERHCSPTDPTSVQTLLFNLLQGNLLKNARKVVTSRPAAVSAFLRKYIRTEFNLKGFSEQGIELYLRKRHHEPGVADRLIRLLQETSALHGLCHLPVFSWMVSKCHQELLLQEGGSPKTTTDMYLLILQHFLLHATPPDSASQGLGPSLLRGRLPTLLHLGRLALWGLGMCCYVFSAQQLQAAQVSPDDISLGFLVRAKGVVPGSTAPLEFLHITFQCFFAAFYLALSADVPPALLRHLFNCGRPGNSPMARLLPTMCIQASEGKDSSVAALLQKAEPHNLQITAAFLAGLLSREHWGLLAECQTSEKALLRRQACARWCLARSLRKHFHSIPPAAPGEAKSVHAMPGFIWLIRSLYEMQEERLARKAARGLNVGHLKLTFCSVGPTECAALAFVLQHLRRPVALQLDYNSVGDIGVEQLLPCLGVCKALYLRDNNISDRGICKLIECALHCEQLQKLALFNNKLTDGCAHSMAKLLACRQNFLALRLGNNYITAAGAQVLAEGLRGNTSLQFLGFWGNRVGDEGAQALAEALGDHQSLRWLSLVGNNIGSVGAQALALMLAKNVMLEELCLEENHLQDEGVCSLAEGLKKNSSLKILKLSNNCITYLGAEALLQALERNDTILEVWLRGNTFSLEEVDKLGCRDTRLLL
Procedure: Human embryonic kidney HEK293T cells (American Type Culture Collection (“ATCC,”) Manassas, Va., USA) were cultured in Dulbecco's modified Eagle's medium (Invitrogen, Carlsbad, Calif., USA) supplemented with 10% fetal calf serum (“FCS”) (PAA Laboratories GmbH, Pasching, Austria). HEK293T cells were seeded into 24 well cell culture plates at a density of 10^5 cells/ml (500 μl/well) and transfected with various expression plasmids, as previously described (Girardin 2003a) (FIG. 1).
as §1
Following a twenty hour transfection period, 50 μl of plasma was added into the wells containing the transfected cells. Purified peptidoglycan, diluted in plasma, from S. aureus (Sigma, St. Louis, Mo., USA) and E. coli (kind gift of Dominique Mengin-Lecreulx or InviroGen, San Diego, Calif., USA) served as positive controls. After six hours of peptidoglycan stimulation, the cell supernatant was removed and the cells were lysed with 100 μl of lysis buffer (25 mM Tris-phosphate pH 8, 8 mM MgCl2, 1 mM dithiothreitol, 15% glycerol, and 1% Triton X-100). Luciferase expression was measured from a 10 μl aliquot of cell extract using a microplate luminometer (LB960 luminometer centro, Berthold Technologies, Bad Wildbad, Germany) after addition of 100 μl of substrate buffer to a final concentration of 1.8 mM luciferin and 1 mM ATP. Each measurement was performed in triplicate. The detection level of the assay is at least 0.15 ug/ml PGN, determined by adding purified PGN to healthy donor plasma.
To validate the experimental system, NF-κB activation in HEK293T cells co-transfected with pNF-κB-Luc and pUNO-hNOD2 was tested in response to stimulation with both MPD and PGN derived from S. aureus (FIG. 2). […]

T1 sequence (Q9HC29 1-1007 L1007P): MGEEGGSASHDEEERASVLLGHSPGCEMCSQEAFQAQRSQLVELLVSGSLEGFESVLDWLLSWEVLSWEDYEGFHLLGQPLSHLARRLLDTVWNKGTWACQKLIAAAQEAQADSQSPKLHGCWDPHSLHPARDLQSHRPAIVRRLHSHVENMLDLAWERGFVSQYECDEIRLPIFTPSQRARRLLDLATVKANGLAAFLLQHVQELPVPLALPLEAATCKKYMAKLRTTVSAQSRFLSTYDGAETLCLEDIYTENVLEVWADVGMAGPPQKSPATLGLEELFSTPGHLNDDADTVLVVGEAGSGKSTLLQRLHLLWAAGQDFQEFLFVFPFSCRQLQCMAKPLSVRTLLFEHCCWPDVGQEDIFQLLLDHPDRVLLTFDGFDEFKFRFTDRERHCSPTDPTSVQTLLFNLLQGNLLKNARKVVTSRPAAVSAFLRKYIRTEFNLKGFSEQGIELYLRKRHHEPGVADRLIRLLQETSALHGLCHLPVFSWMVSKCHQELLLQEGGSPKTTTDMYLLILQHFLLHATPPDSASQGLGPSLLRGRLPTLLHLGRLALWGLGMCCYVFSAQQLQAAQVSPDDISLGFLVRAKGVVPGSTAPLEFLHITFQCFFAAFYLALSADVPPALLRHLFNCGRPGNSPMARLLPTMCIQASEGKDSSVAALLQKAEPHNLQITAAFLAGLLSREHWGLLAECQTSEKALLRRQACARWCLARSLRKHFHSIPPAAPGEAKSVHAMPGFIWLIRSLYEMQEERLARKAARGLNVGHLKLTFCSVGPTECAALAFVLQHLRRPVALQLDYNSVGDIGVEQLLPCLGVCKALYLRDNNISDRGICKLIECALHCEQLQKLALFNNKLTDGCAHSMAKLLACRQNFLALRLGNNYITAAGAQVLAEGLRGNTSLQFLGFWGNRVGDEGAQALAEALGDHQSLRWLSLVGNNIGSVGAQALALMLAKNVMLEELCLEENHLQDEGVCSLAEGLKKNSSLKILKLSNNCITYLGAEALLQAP

luciferase / NF-κB response in fsNOD2-transfected cells [1]	response of NOD2-transfected cells to inflammatory cytokines [2]	Compound	NF-κB activation (luciferase expression) ([2]; 300 pM MDP, HEK293T co-transfected with pNF-κB-Luc and pUNO-hNOD2)	signal in NOD2 reporter system (luciferase, RLU) ([2]; 6 hours of incubation, without plasma)
similarly responsive	similarly responsive	interleukin 1β [IL-1β]		
similarly responsive	similarly responsive	tumor necrosis factor-α [TNF-α]		

Compound	luciferase / NF-κB response in fsNOD2-transfected cells [1]	response of NOD2-transfected cells to inflammatory cytokines [2]	NF-κB activation (luciferase expression) ([2]; 300 pM MDP, HEK293T co-transfected with pNF-κB-Luc and pUNO-hNOD2)	signal in NOD2 reporter system (luciferase, RLU) ([2]; 6 hours of incubation, without plasma)
CC(=O)N[C@H]1C(O)O[C@H](CO)[C@@H](O)[C@@H]1O[C@H](C)C(=O)N[C@@H](C)C(=O)N[C@H](CCC(=O)O)C(N)=O (mixture of isomers) [MDP, muramyl dipeptide]	no increase in luciferase		induced NF-κB activation	positive signals
